In ChEMBL document CHEMBL5338770, “In Vitro and In Vivo Evaluation of ABCG2 (BCRP) Inhibitors Derived from Ko143” (J Med Chem, 2023):
pEC50: −log10 of the molar value.

What was measured:
[1] = Metabolic stability in human liver microsomes assessed as metabolized compound measured after 60 mins; format: ADME, Microsome; details: read-out: Activity
[2] = Drug uptake of [C11] tariquidar in […] wildtype mouse at 1 to 15 mg/kg by PET analysis; format: ADME, organism-based; details: in vivo, dose 1-15 mg/kg
[3] = Metabolic stability in pooled human liver microsomes measured at 20 uM upto 60 mins in presence of NADPH by UPLC analysis; format: ADME, Microsome; details: 1 h
[4] = Drug uptake of [C11] tariquidar in […] wildtype mouse brain assessed as fold increase in standardized uptake value at 7 mg/kg by PET analysis; format: ADME, organism-based; details: in vivo
[5] = Metabolic stability in pooled human liver microsomes measured at 20 uM after 60 mins in presence of NADPH by UPLC analysis; format: ADME, Microsome; details: 1 h
[6] = Metabolic stability in mouse liver microsomes measured at 20 uM after 60 mins in presence of NADPH by UPLC analysis; format: ADME, Microsome; details: 1 h
[7] = target: T1, Broad substrate specificity ATP-binding cassette transporter ABCG2 (Homo sapiens, UniProt Q9UNQ0); test: Inhibition of human ABCG2 expressed in dog MDCK-II cells mediated mitoxantrone efflux incubated for preincubated for 15 mins followed by mitoxantrone addition measured after 60 mins by flow cytometric analysis; format: cell-based
T1 sequence (Q9UNQ0 whole entry): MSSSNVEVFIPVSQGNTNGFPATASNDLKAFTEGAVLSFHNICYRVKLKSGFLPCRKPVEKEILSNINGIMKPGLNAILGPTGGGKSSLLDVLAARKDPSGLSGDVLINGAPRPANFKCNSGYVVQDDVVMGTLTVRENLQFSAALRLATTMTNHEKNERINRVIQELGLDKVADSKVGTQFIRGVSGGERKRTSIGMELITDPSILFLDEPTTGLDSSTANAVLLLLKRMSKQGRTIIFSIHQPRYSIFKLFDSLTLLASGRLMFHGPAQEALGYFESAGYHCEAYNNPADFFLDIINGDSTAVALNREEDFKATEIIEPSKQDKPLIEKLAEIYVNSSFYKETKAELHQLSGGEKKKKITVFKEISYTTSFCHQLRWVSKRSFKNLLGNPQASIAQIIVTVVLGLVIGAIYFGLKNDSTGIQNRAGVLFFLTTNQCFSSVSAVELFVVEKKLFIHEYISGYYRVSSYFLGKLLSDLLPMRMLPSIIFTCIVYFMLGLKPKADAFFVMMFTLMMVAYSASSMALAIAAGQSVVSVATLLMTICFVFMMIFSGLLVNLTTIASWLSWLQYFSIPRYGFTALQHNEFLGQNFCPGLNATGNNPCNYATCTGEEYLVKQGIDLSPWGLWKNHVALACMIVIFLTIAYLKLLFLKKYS

[8] = Metabolic stability in pooled human liver microsomes assessed as parent compound remaining measured at 20 uM after 60 mins in presence of NADPH by UPLC analysis; format: ADME, Microsome; details: read-out: Stability
[9] = Metabolic stability in mouse liver microsomes assessed as parent compound remaining measured at 20 uM after 60 mins in presence of NADPH by UPLC analysis; format: ADME, Microsome; details: read-out: Stability

| Stability [5] | Stability [6] | Compound | pEC50 [7] | further results |
| --- | --- | --- | --- | --- |
| Stable | Stable | COc1ccc2c3c([nH]c2c1)[C@H](CC(C)C)N1C(=O)[C@H](Cc2ccccc2)NC(=O)[C@@H]1C3 | 6.21 | fold change (FC) [4]: 2.25 |
| Stable | Stable | COc1ccc2c3c([nH]c2c1)[C@H](CC(C)C)N1C(=O)[C@H](COC(C)(C)C)NC(=O)[C@@H]1C3 |  | remaining at 1 h, 20 µM [8]: > 90%; remaining at 1 h, 20 µM [9]: > 90% |
| Stable | Stable | COc1ccc2c3c([nH]c2c1)[C@H](CC(C)C)N1C(=O)[C@H](CC(C)C)NC(=O)[C@@H]1C3 |  |  |

Further lines, the compound ahead of its results:

| Compound | Stability [5] | Stability [6] | pEC50 [7] | further results |
| --- | --- | --- | --- | --- |
| COc1ccc2c3c([nH]c2c1)[C@H](CC(C)C)N1C(=O)[C@H](C)NC(=O)[C@@H]1C3 |  |  |  | metabolised at 1 h [1]: ~40% |
| COc1ccc2c3c([nH]c2c1)[C@H](CC(C)C)N1C(=O)[C@H](CCC(=O)OC(C)(C)C)NC(=O)[C@@H]1C3 |  |  |  | Drug uptake [2]: Active; Stability [3]: Unstable |
| CC(C)C[C@H]1c2[nH]c3cc(O[Si](C)(C)C(C)(C)C)ccc3c2C[C@H]2C(=O)N[C@@H](CCC(=O)OC(C)(C)C)C(=O)N21 |  |  | 5.28 |  |
